# Tests used:
# Format in all cases: cell-based
# Caco-2 cells = experiment: MTT cell viability assay, Caco-2; conditions: Homo sapiens, 72 h incubation, mean ± SD
# Protocol: The effect of the compounds on cell viability was evaluated using the MTT assay. HCT116 (3000 cells/well), SW620 (8000 cells/well), SW480 (6000 cells/well), Caco-2 (4000 cells/well), A375 (1500 cells/well), MiaPaca-2 (2000 cells/well), and BJ (10,000 cells/well) cells were seeded in 96-well plates. After 24 h, the growth medium was replaced with a fresh medium containing the desired concentration of the compound or DMSO (control). After 72 h of incubation, the supernatant was removed and 100 µL of a mixture (1:1) of filtered MTT solution (1 mg/mL in PBS) with FBS-free medium was added to each well. After 1 h of incubation at 37 °C, the mixture was removed and 100 µL of DMSO was added to each well to dissolve the formed formazan crystals. Absorbance was immediately measured at 570 nm using a Benchmark Plus Microplate Reader (Bio-Rad Laboratories, Hercules, CA, USA). IC50 values were calculated using GraphPad Prism 9 software (GraphPad Software, San Diego, CA, USA) and expressed as the mean ± standard deviation (SD) of at least three independent experiments.
# SW480 cells [1] = experiment: Cell proliferation assay and cell doubling time; conditions: SW480 cells treated at IC50 concentration; control 42 h
# Protocol: SW480 cells were seeded at a concentration of 1.68 × 10^5 cells per well in 6-well plates and incubated at 37 °C. […] Prior to treatment initiation (0 h), cells were trypsinized, washed with DPBS, and collected by centrifugation. The collected cells were resuspended in DPBS containing trypan blue and examined using an Invitrogen Countess 3 Automated Cell Counter (Thermo Fisher Scientific, Waltham, MA, USA) to determine the cell number and viability. This procedure was replicated at various treatment time points (24, 48, and 72 h) to generate a cell proliferation curve depicting the changes over time. Cell doubling time was calculated by dividing the natural logarithm of 2 by the growth rate.
# SW480 cells [2] = experiment: Apoptosis assay (annexin V-FITC/PI, FACS); conditions: SW480, IC50 concentration
# Description: Apoptosis can be detected by staining the cells with annexin V and propidium iodide (PI). […] However, during the early stages of apoptosis, the membrane flips and PS is exposed on the outer side of the cell membrane. Thus, annexin V fluorescently labeled with fluorescein isothiocyanate (FITC) binds with high affinity for PS. In late apoptosis/necrosis, the cells experience a ruptured membrane, allowing Annexin V to interact with the entire cell membrane. At this stage, the nuclear membrane loses its integrity, which facilitates the binding of PI to DNA. Thus, this dual-staining protocol allows for the detection and quantification of live cells (annexin V−, PI−), early apoptotic cells (annexin V+, PI−), and late apoptotic/necrotic cells (annexin V+, PI+).
# SW480 cells (1.68 × 10^5 cells/well) were seeded in 6-well plates and incubated at 37 °C for 24 h. Subsequently, the growth medium was replaced with fresh medium (control) or compound 14 at the previously determined IC50 concentration. Following incubation for 24, 48, or 72 h, the adherent cells were gently detached by trypsinization, washed with DPBS, and collected by centrifugation. Similarly, the cells in suspension were washed with DPBS and collected by centrifugation, along with the adhered cells. […]
# SW480 cells [3] = experiment: Cell cycle assay (PI, FACS); conditions: SW480, IC50 concentration
# Protocol: SW480 cells were seeded in 6-well plates and treated as described for the apoptosis assay. After centrifugation, the cells were resuspended in 500 µL DPBS and added dropwise to 4.5 mL 70% (v/v) cold ethanol. The cell suspension was kept at −20 °C for a minimum of 4 h. The cell suspension was then centrifuged, washed with cold DPBS, resuspended in 360 µL DPBS containing 10 µL RNase (10 mg/mL), and incubated for 1 h, at 37 °C, with agitation. Before FACS analysis, 20 µL PI solution (1 mg/mL) was added to the samples. FACS analysis was performed using a Gallios flow cytometer (Beckman Coulter, Brea, CA, USA) at 488 nm. Data were acquired from 1 × 10^4 cells and subsequently analyzed using the multicycle software provided by Phoenix Flow Systems (San Diego, CA, USA).
# [4] = test system: intracellular ROS in SW480 cells; experiment: ROS determination assay (H2DCFDA, flow cytometry); conditions: SW480, IC50 concentration
# Protocol: Intracellular ROS levels were assessed by flow cytometry using H2DCFDA probe. SW480 cells were cultured in 6-well plates and treated according to the procedure described for the apoptosis assay. After incubation for 24, 48, and 72 h, adherent cells were collected by centrifugation after trypsinization and washed with DPBS. The cells were then incubated with 1 mL HBSS containing 2 mM L-glutamine and 50 µM H2DCFDA probe at 37 °C for 45 min. in a cell culture incubator. Next, the cellular suspension was washed with 2 mL of DPBS and the cells were collected by centrifugation. Finally, the cells were gently resuspended in 350 µL DPBS containing 20 µg/mL PI solution (1 mg/mL). The intracellular internalized probe reacts with ROS and undergoes transformation into 2′,7′-dichlorofluorescein (DCF). DCF fluorescence data were collected from 1 × 10^4 PI-negative cells by using a Gallios flow cytometer (Beckman Coulter, Brea, CA, USA) at 520 nm.
structure (smiles),measurement,setting,value
"CC(=O)Oc1c(C(C)C)cc2c(c1OC(C)=O)[C@@]1(NC(=O)NCCc3cccc(Cl)c3)CCCC(C)(C)[C@@H]1CC2 [Compound 14, (4bR,8aS)-4b-(3-(3-chlorophenethyl)ureido)-2-isopropyl-8,8-dimethyl-4b,5,6,7,8,8a,9,10-octahydrophenanthrene-3,4-diyl diacetate]",IC50,Caco-2 cells,8 ± 0.5 µM
same,cell doubling time,SW480 cells [1],70 h
same,increase of cells in late apoptosis/necrosis,SW480 cells [2]; 48 and 72 h,not sustained
same,percentage of cells in late apoptosis/necrosis,"SW480 cells [2]; 24 h, control 6.5%",8.3%
same,percentage of cells in the G0/G1 phase,"SW480 cells [3]; 24 h, control 50.3%",71%
same,percentage of cells in the G0/G1 phase,"SW480 cells [3]; at the three time points (24, 48, 72 h)",higher than 66.6%
same,percentage of intracellular ROS compared with control,[4]; 24 h,56%
same,percentage of intracellular ROS compared with control,[4]; 48 h,71%
same,change in ROS levels,[4]; 72 h,no significant changes

# From PMC11728001, “Design, Synthesis, and Biological Evaluation of Novel Urea-Containing Carnosic Acid Derivatives with Anticancer Activity” (International Journal of Molecular Sciences, 2024)
